Measurements from US20260283927A1, “CRYSTALLINE FORM OF CERAMIDE NP AND COMPOSITION INCLUDING THE SAME” (CRODA KOREA LTD., priority 2023, published 2026).

Assay type: physicochemical
Experimental: Thermogravimetric analysis (TGA) was performed using a Mettler TGA 2 equipped with a 34 position auto-sampler. The instrument was calibrated for energy and temperature using certified Isoderm and Nickel. 10.01 mg of the ceramide NP powder of Example 1 was added to a pinhole aluminum pan and heated from 20° C. to 800° C. at 10° C./min to perform thermogravimetric analysis. The TGA results of the ceramide NP powder of Example 1 are shown in FIG. 7, and the TGA results of the ceramide NP powder of Comparative Example 1 are shown in FIG. 8. The TGA results of ceramide NP powder of Example 1 and the ceramide NP powder of Comparative Example 1 are compared to each other by being arranged to overlap each other in FIG. 9.

mass remaining	stability compared with ceramide NP powder of Comparative Example 1	temperature at which decomposition began (no weight loss until then) (TGA, heated from 20° C. to 800° C. at 10° C./min)	Molecule
about 95%			ceramide NP [Comparative Example 1, reference compound]
about 95%	more stable	200 °C	CCCCCCCC/C=C\CCCCCCCC(=O)N[C@@H](CO)[C@H](O)[C@H](O)CCCCCCCCCCCCCC [Example 1, ceramide NP]
